Data set [1] in a line: Approximate solubility of freebase Compound A in 16 solvents at RT. In kind it is physicochemical. As for the experimental part:
Polymorph Screening. The solubility of freebase Compound A was estimated in 16 solvents at RT. (Table 8). Polymorph screening experiments were performed using different solution crystallization or solid phase transition methods.

Data set [2] in a line: Solubility at 37° C. (summary of solid forms). It is filed as physicochemical. Conditions: medium not stated.
Data set [3] is described as follows: Water sorption analysis / DVS (hygroscopicity). Conditions: for Hygroscopicity (in words): water sorption / DVS at 25° C. In kind it is physicochemical. Here is the method:
Water sorption analysis. About 5-6 mg of powder sample was placed in the sample pan of an automated water sorption analyzer (Q5000SA, TA instruments, New Castle, DE) at 25° C. and a nitrogen flow rate of 200 mL/min. […] This was followed by a progressive decrease in RH in decrements of 10% back to 0% RH, using the same protocol.

Data set [4] can be described thus: Stress stability of solid forms at elevated temperature and humidity (XRPD, impurities). It is filed as physicochemical. Here is the method:
Preliminary stress stability analysis of Compound B Form B. The XRPD patterns of Compound A salts (fumarate and tartrate) exposed to 40° C./75% RH for one month under open conditions.
XRPD of one-month stability sample.

Data set [5] is described as follows: Equilibrium solubility (24 hrs) of Form B and Form D in aw 0.2/0.4 EtOH:H2O systems. It is filed as physicochemical. Conditions: RT, concentration of freebase in filtrate; for solubility at 24 hrs: organic solvent or mixture, thermodynamic from solid. Here is the method:
Solubility Measurement of Form B and D. To further confirm the thermodynamic stability relationship between Form B and Form D under aw of 0.2 and 0.4 conditions at RT, equilibrium solubility under the conditions set forth in Table 35 was collected.
Solids of anhydrous Form B and hydrous Form D were suspended in 0.5 mL of target solvent system (aw=0.2/0.4), respectively, and magnetically stirred for 24 hrs (750 rpm). The suspension was filtered and the concentration of freebase in the filtrate was tested.

Data set [6] can be described thus: Compression analysis of Compound B Form B compacts. In kind it is physicochemical. To be noted: 250 mg compacts of neat compound.
A short description of data set [7]: Hydrate-anhydrate stability, slurry competition under various water activity at RT. In kind it is physicochemical. Here is the method:
Critical Water Activity Determination between Form B and D. To determine critical water activity between anhydrous Form B and hydrous Form D, slurry competition was performed in various water activity conditions at RT as listed in Table 34. A mixture of Form B and D with equal mass ratio was suspended in saturated EtOH-water (with various aw) solutions of Form B and then magnetically stirred at RT. After slurry for about 7˜36 days, remaining solids were isolated for XRPD characterization.

Data set [8] is described as follows: Equilibrium solubility (17 hrs) of Form B and Form F in EtOH. Conditions: concentration of freebase in filtrate. It is filed as physicochemical. The source says:
Phase transformation. Crystallization of Compound B from solvents such as ethyl acetate, ethanol, acetone or and aqueous mixture of these may result in the formation of one more of the following forms: anhydrous Form B, anhydrous Form F, monohydrate Form D, and acetone solvate Form A. The XRPD patterns of these four solid forms are shown in FIG. 21. It was therefore important to know the physical stability of these forms to determine the complete phase transformation landscape and control crystallization to obtain the desired Form B. Owing to the close proximity of melting points of Forms F and B (160-164° C. onset for Form F vs 166-175° C. for Form B), form conversion was slow in competitive slurry bridging experiments at RT and a mixture of both forms was obtained.
Equilibrium Solubility Measurement of Anhydrous Form B and F. To further determine the thermodynamic stability between Form B and F, equilibrium solubility measurement experiments were conducted in EtOH at 25° C., 35° C. and 50° C., respectively. Detailed procedures are summarized as follows: solids of Form B and F were suspended in 0.4 mL of EtOH at targeted temperatures and magnetically stirred for 17 hrs (750 rpm). After centrifugation, the concentration and HPLC purity of freebase in the filtrate was tested. The crystal form of remaining solids was checked by XRPD.

The test system of data set [9] is xenograft models of ER-positive breast cancer. To be noted: dosed according to a clinically relevant dosing scheme.

Experimental findings from US11780834B2, “Solid forms of 3-((1R,3R)-1-(2,6-difluoro-4-((1-(3-fluoropropyl)azetidin-3-yl)amino)phenyl)-3-methyl-1,3,4,9-tetrahydro-2H-pyrido[3,4-b]indol-2-yl)-2,2-difluoropropan-1-ol and processes for preparing fused tricyclic compounds comprising a substituted phenyl or pyridinyl moiety, including methods …” (Hoffmann-La Roche Inc., priority 2018, dated 2023) are described below.

Converted amounts (≈) assume the structure as drawn.

`C[C@@H]1Cc2c([nH]c3ccccc23)[C@@H](c2c(F)cc(NC3CN(CCCF)C3)cc2F)N1CC(F)(F)CO` [Compound A, 3-((1R,3R)-1-(2,6-difluoro-4-((1-(3-fluoropropyl)azetidin-3-yl)amino)phenyl)-3-methyl-1,3,4,9-tetrahydro-2H-pyrido[3,4-b]indol-2-yl)-2,2-difluoropropan-1-ol]: the solubility is over 60 mg/mL in data set [1] (ethanol, organic solvent or mixture, EtOH); over 60 mg/mL in [1] (organic solvent or mixture, 1,4-Dioxane); over 60 mg/mL in [1] (organic solvent or mixture, 2-propanol); over 60 mg/mL in data set [1] (organic solvent or mixture, ACN); over 60 mg/mL in [1] (organic solvent or mixture, Acetone); over 44 mg/mL in [1] (organic solvent or mixture, CPME). Further, the solubility in data set [1] (organic solvent or mixture, Cyclohexanes) was under 1.9 mg/mL; in data set [1] (organic solvent or mixture, EtOAc) it was over 60 mg/mL; in data set [1] (organic solvent or mixture, IPAc) it was over 60 mg/mL; in data set [1] (organic solvent or mixture, Iso-butanol), over 40 mg/mL; in data set [1] (organic solvent or mixture, MIBK), over 60 mg/mL; in data set [1] (organic solvent or mixture, MTBE), over 60 mg/mL. Besides, the solubility is over 60 mg/mL in data set [1] (organic solvent or mixture, MeTHF); over 60 mg/mL in data set [1] (organic solvent or mixture, Toluene); under 2.1 mg/mL in data set [1] (organic solvent or mixture, n-Heptane); under 1.9 mg/mL in data set [1] (water, H2O); about 6.6 mg/mL (≈ 12.6 mM) in data set [2].

In the case of `C[C@@H]1Cc2c([nH]c3ccccc23)[C@@H](c2c(F)cc(NC3CN(CCCF)C3)cc2F)N1CC(F)(F)CO` [Compound B Form B], in data set [3], the “Hygroscopicity (in words)” value is “slightly hygroscopic”. Further, the “Solid form (XRPD) after accelerated stability” value in [4] (30° C./65% RH and 40° C./75% RH, up to 6 months, open) is given as “remains unchanged”. Besides, the “Solid form (XRPD) after stress stability” value in [4] (40° C./75% RH, one month, open) is recorded as “remains unchanged”. The solubility at 24 hrs in data set [5] (EtOH:H2O (92.7:7.3, v/v), aw 0.4, 25 °C, aw 0.4, EtOH:H2O (92.7:7.3, v/v)) turned out to be 27.5 mg/mL (≈ 52.6 mM); in [5] (EtOH:H2O (97:3, v/v), aw 0.2, 25 °C, aw 0.2, EtOH:H2O (97:3, v/v)), 24.4 mg/mL (≈ 46.7 mM). The “Solid form upon compression (SSNMR, XRPD)” value in data set [6] was “remains unchanged”. For the same molecule, the “Water activity (aw) at which the form remained stable against hydrate Form D” value in [7] is listed as under 0.2. The “Water activity (aw) up to which the form was kinetically stable” value in data set [7] (slurry bridging experiments up to 36 days) is given as at most 0.4. Further, the solubility at 17 hrs in data set [8] (35 °C, organic solvent or mixture, thermodynamic from solid) worked out at 0.3 mg/mL (≈ 0.574 mM); in data set [8] (50 °C, organic solvent or mixture, thermodynamic from solid), 0.49 mg/mL (≈ 0.938 mM). For the same molecule, the solubility at 17 h in [8] (ethanol, 25 °C, organic solvent or mixture, thermodynamic from solid) was 0.23 mg/mL (≈ 0.44 mM). The “Solubility at 37° C.” value in data set [2] is on record as “about 5.9 mg/mL”.

On to `C[C@@H]1Cc2c([nH]c3ccccc23)[C@@H](c2c(F)cc(NC3CN(CCCF)C3)cc2F)N1CC(F)(F)CO` [Compound B Form D], for which the “Water uptake (DVS, desorption)” value in data set [3] (20% RH, 25° C.) is reported as 2.25%; in data set [3] (80% RH, 25° C.), 2.72%. In addition, the “Solubility (equilibrium)” value is recorded as 21.7 mg/mL (≈ 41.5 mM) in data set [5] (aw 0.2, EtOH:H2O (97:3, v/v)) and 18.6 mg/mL (≈ 35.6 mM) in data set [5] (aw 0.4, EtOH:H2O (92.7:7.3, v/v)).

Consider `C[C@@H]1Cc2c([nH]c3ccccc23)[C@@H](c2c(F)cc(NC3CN(CCCF)C3)cc2F)N1CC(F)(F)CO` [Compound B Form F], for which the “Water uptake (DVS)” value in data set [3] (up to 80% RH, 25° C.) was about 1.9%. For the same molecule, in data set [3], the “Hygroscopicity (in words)” value was “slightly hygroscopic”. The “Solubility (equilibrium)” value in [8] (25° C.) worked out at 0.26 mg/mL (≈ 0.498 mM); in data set [8] (35° C.), 0.36 mg/mL (≈ 0.689 mM); in data set [8] (50° C.), 0.82 mg/mL (≈ 1.57 mM).

Regarding `C[C@@H]1Cc2c([nH]c3ccccc23)[C@@H](c2c(F)cc(NC3CN(CCCF)C3)cc2F)N1CC(F)(F)CO` [Compound C Form 1], the “Hygroscopicity at 95% RH” value in data set [3] (95% RH) is recorded as under 1.5%.

`C[C@@H]1Cc2c([nH]c3ccccc23)[C@@H](c2c(F)cc(NC3CN(CCCF)C3)cc2F)N1CC(F)(F)CO` [Compound C]: in [4] (40° C./75% RH, one month), the “Impurities after stress stability” value was 0.18%. Moreover, in data set [4] (40° C./75% RH, one month, open), the “Solid form (XRPD) after stress stability” value is on record as “did not change”.

Turning to `C[C@]12CC[C@@H]3c4ccc(O)cc4C[C@@H](CCCCCCCCC[S+]([O-])CCCC(F)(F)C(F)(F)F)[C@H]3[C@@H]1CC[C@@H]2O` (stereo partly drawn) [Fulvestrant, reference compound], the “Efficacy relative to Compound B” value in data set [9] is “less efficacious than Compound B”.
